Test results as given in PMC12669040, “Tumour-specific STING agonist synthesis via a two-component prodrug system” (Nature Chemistry, 2025).
“And” between values parts separate entries of the source, which are not always exact repeats. Identical values can stand only once.

What was measured:
[1] = Colorimetric alkylation rate constant assay with TNB^2− as non-specific thiol; type: physicochemical; design: second-order: unit not given here; conditions: for remaining [B]: in µM
[2] = Colorimetric alkylation rate constant assay with thiol N1; type: physicochemical; conditions: for remaining [A]: N1 from calibration curve (N1 in uM); for remaining [A] / remaining [B]: in µM
[3] = Time 2891 sec, [B]0 = 250, Replicates 1-3
[4] = Time 3071 sec, [B]0 = 250, Replicates 1-3
[5] = Time 3252 sec, [B]0 = 250, Replicates 1-3
[6] = Time 3433 sec, [B]0 = 250, Replicates 1-3
[7] = Time 3613 sec, [B]0 = 250, Replicates 1-3

O=C(CCl)Nc1ccccc1C(=O)O [Compound C5]
remaining [B] ([1]; Replicate 1, 723 sec, [B]0 = 250): 246.309 | remaining [B] ([1]; Replicate 1, 903 sec, [B]0 = 250): 246.195 | remaining [B] ([1]; Replicate 1, 1084 sec, [B]0 = 250): 246.107 | remaining [B] ([1]; Replicate 1, 1265 sec, [B]0 = 250): 246.422 | remaining [B] ([1]; Replicate 1, 1445 sec, [B]0 = 250): 246.548 | remaining [B] ([1]; Replicate 1, 1626 sec, [B]0 = 250): 246.346 | remaining [B] ([1]; Replicate 1, 1806 sec, [B]0 = 250): 245.931 | remaining [B] ([1]; Replicate 1, 1988 sec, [B]0 = 250): 245.767 | remaining [B] ([1]; Replicate 1, 2168 sec, [B]0 = 250): 245.616 | remaining [B] ([1]; Replicate 1, 2349 sec, [B]0 = 250): 245.553 | remaining [B] ([1]; Replicate 1, 2530 sec, [B]0 = 250): 245.464 | remaining [B] ([1]; Replicate 1, 2710 sec, [B]0 = 250): 245.427 | remaining [B] ([1]; Replicate 2, 542 sec, [B]0=250): 245.747 | remaining [B] ([1]; Replicate 2, 723 sec, [B]0=250): 245.533 | remaining [B] ([1]; Replicate 2, 903 sec, [B]0=250): 245.445 | remaining [B] ([1]; Replicate 2, 1084 sec, [B]0=250): 245.382 | remaining [B] ([1]; Replicate 2, 1265 sec, [B]0=250): 245.218 | remaining [B] ([1]; Replicate 2, 1445 sec, [B]0=250): 245.168 | remaining [B] ([1]; Replicate 2, 1626 sec, [B]0=250): 245.067 | remaining [B] ([1]; Replicate 2, 1806 sec, [B]0=250): 244.991 | remaining [B] ([1]; Replicate 2, 1988 sec, [B]0=250): 244.928 | remaining [B] ([1]; Replicate 2, 2168 sec, [B]0=250): 244.827 | remaining [B] ([1]; Replicate 2, 2349 sec, [B]0=250): 244.739 | remaining [B] ([1]; Replicate 2, 2530 sec, [B]0=250): 244.676 | remaining [B] ([1]; Replicate 2, 2710 sec, [B]0=250): 244.563 | remaining [B] ([1]; Replicate 3, 723 sec, [B]0=250): 245.666 | remaining [B] ([1]; Replicate 3, 903 sec, [B]0=250): 245.565 | remaining [B] ([1]; Replicate 3, 1084 sec, [B]0=250): 245.427 | remaining [B] ([1]; Replicate 3, 1265 sec, [B]0=250): 245.389 | remaining [B] ([1]; Replicate 3, 1445 sec, [B]0=250): 245.313 | remaining [B] ([1]; Replicate 3, 1626 sec, [B]0=250): 245.149 | remaining [B] ([1]; Replicate 3, 1806 sec, [B]0=250): 245.137 | remaining [B] ([1]; Replicate 3, 1988 sec, [B]0=250): 245.036 | remaining [B] ([1]; Replicate 3, 2168 sec, [B]0=250): 244.986 | remaining [B] ([1]; Replicate 3, 2349 sec, [B]0=250): 244.872 | remaining [B] ([1]; Replicate 3, 2530 sec, [B]0=250): 244.809 | remaining [B] ([1]; Replicate 3, 2710 sec, [B]0=250): 244.62 | second-order [1, 3]: 0.0002299 and 0.0002236 and 0.0001928 | remaining [B] [1, 3]: 244.62 and 245.338 and 244.475 | second-order [1, 4]: 0.0002338 and 0.0002269 and 0.0001976 | remaining [B] [1, 4]: 244.544 and 245.225 and 244.386 | second-order [1, 5]: 0.0002365 and 0.0002296 and 0.0001987 | remaining [B] [1, 5]: 244.481 and 245.2 and 244.323 | second-order [1, 6]: 0.0002403 and 0.0002356 and 0.0002052 | remaining [B] [1, 6]: 244.343 and 245.049 and 244.235 | second-order [1, 7]: 0.0002452 and 0.0002384 and 0.0002063 | remaining [B] [1, 7]: 244.28 | second-order ([1]; Time 3794 sec, [B]0 = 250, Replicates 1-3): 0.0002474 and 0.0002417 and 0.0002117 | second-order ([1]; Time 3974 sec, [B]0 = 250, Replicates 1-3): 0.0002513 and 0.0002455 and 0.0002139 | second-order ([1]; Time 4155 sec, [B]0 = 250, Replicates 1-3): 0.0002546 and 0.0002504 and 0.0002193 | second-order ([1]; Time 4336 sec, [B]0 = 250, Replicates 1-3): 0.000259 and 0.0002537 and 0.000222 | second-order ([1]; Time 4516 sec, [B]0 = 250, Replicates 1-3): 0.0002623 and 0.0002543 and 0.0002291 | second-order ([1]; Time 4697 sec, [B]0 = 250, Replicates 1-3): 0.0002656 and 0.0002598 and 0.0002275 | second-order ([1]; Time 4878 sec, [B]0 = 250, Replicates 1-3): 0.0002689 and 0.0002614 and 0.0002307 | second-order ([1]; Time 5058 sec, [B]0 = 250, Replicates 1-3): 0.0002728 and 0.000267 and 0.0002367 | second-order ([1]; Time 5239 sec, [B]0 = 250, Replicates 1-3): 0.0002767 and 0.0002692 and 0.0002406 | second-order ([1]; Time 5419 sec, [B]0 = 250, Replicates 1-3): 0.0002789 and 0.0002725 and 0.0002433 | second-order ([1]; Time 5600 sec, [B]0 = 250, Replicates 1-3): 0.0002833 and 0.0002764 and 0.0002471 | second-order ([1]; Time 5781 sec, [B]0 = 250, Replicates 1-3): 0.0002878 and 0.0002803 and 0.0002499 | second-order ([1]; Time 5961 sec, [B]0 = 250, Replicates 1-3): 0.0002906 and 0.000283 and 0.0002554 | remaining [A] ([2]; Replicate 1, time 576 sec): 85.1676 | remaining [B] ([2]; Replicate 1, time 576 sec, [B]0 = 250): 231.048 | second-order ([2]; Replicate 1, time 576 sec, second-order plot value): 0.0008369 | remaining [A] ([2]; Replicate 1, time 606 sec): 84.6546 | remaining [B] ([2]; Replicate 1, time 606 sec, [B]0 = 250): 230.535 | second-order ([2]; Replicate 1, time 606 sec, second-order plot value): 0.0008631 | remaining [A] ([2]; Replicate 2, time 576 sec): 85.8231 | remaining [B] ([2]; Replicate 2, time 576 sec, [B]0=250): 232.681 | second-order ([2]; Replicate 2, time 576 sec, second-order plot value): 0.0007628 | remaining [A] ([2]; Replicate 2, time 606 sec): 85.3129 | remaining [B] ([2]; Replicate 2, time 606 sec, [B]0=250): 232.171 | second-order ([2]; Replicate 2, time 606 sec, second-order plot value): 0.0007885 | remaining [A] ([2]; Replicate 3, time 576 sec): 89.9918 | remaining [B] ([2]; Replicate 3, time 576 sec, [B]0=250): 235.444 | second-order ([2]; Replicate 3, time 576 sec, second-order plot value): 0.0006183 | remaining [A] ([2]; Replicate 3, time 606 sec): 89.4236 | remaining [B] ([2]; Replicate 3, time 606 sec, [B]0=250): 234.876 | second-order ([2]; Replicate 3, time 606 sec, second-order plot value): 0.0006452 | remaining [B] ([2]; time 0 sec, [B]0 = 250, replicates 1-3): 249.513 and 244.642 and 245.947 | second-order ([2]; time 0 sec, replicates 1-3): 0.0001617 and 1.87e-5 and 0.0002136 | remaining [B] ([2]; time 30 sec, [B]0 = 250, replicates 1-3): 248.485 and 243.217 and 245.21 | second-order ([2]; time 30 sec, replicates 1-3): 0.0001921 and 5.857e-5 and 0.0002732 | remaining [B] ([2]; time 60 sec, [B]0 = 250, replicates 1-3): 247.619 and 242.647 and 243.934 | second-order ([2]; time 60 sec, replicates 1-3): 0.0002455 and 9.259e-5 and 0.0002974 | remaining [B] ([2]; time 91 sec, [B]0 = 250, replicates 1-3): 246.645 and 241.963 and 243.197 | second-order ([2]; time 91 sec, replicates 1-3): 0.0002767 and 0.0001313 and 0.0003267 | remaining [B] ([2]; time 121 sec, [B]0 = 250, replicates 1-3): 245.942 and 241.222 and 242.404 | second-order ([2]; time 121 sec, replicates 1-3): 0.0003108 and 0.0001597 and 0.0003587 | remaining [B] ([2]; time 151 sec, [B]0 = 250, replicates 1-3): 245.265 and 240.31 and 241.667 | second-order ([2]; time 151 sec, replicates 1-3): 0.0003428 and 0.0001872 and 0.0003986 | remaining [B] ([2]; time 182 sec, [B]0 = 250, replicates 1-3): 244.291 and 239.712 and 241.043 | second-order ([2]; time 182 sec, replicates 1-3): 0.0003702 and 0.0002272 and 0.0004251 | remaining [B] ([2]; time 212 sec, [B]0 = 250, replicates 1-3): 243.723 and 239.142 and 240.505 | second-order ([2]; time 212 sec, replicates 1-3): 0.000394 and 0.0002509 and 0.0004506 | remaining [B] ([2]; time 242 sec, [B]0 = 250, replicates 1-3): 242.993 and 238.344 and 239.824 | second-order ([2]; time 242 sec, replicates 1-3): 0.0004243 and 0.0002815 and 0.0004866 | remaining [B] ([2]; time 273 sec, [B]0 = 250, replicates 1-3): 242.1 and 237.717 and 239.002 | second-order ([2]; time 273 sec, replicates 1-3): 0.0004614 and 0.0003194 and 0.0005152 | remaining [B] ([2]; time 303 sec, [B]0 = 250, replicates 1-3): 241.397 and 237.004 and 238.492 | second-order ([2]; time 303 sec, replicates 1-3): 0.0004847 and 0.0003496 and 0.000548 | remaining [B] ([2]; time 333 sec, [B]0 = 250, replicates 1-3): 240.774 and 236.377 and 237.897 | second-order ([2]; time 333 sec, replicates 1-3): 0.000512 and 0.0003766 and 0.0005771 | remaining [B] ([2]; time 364 sec, [B]0 = 250, replicates 1-3): 239.963 and 235.665 and 237.16 | second-order ([2]; time 364 sec, replicates 1-3): 0.0005463 and 0.0004122 and 0.0006106 | remaining [B] ([2]; time 394 sec, [B]0 = 250, replicates 1-3): 239.367 and 234.981 and 236.423 | second-order ([2]; time 394 sec, replicates 1-3): 0.0005809 and 0.0004386 and 0.0006431 | remaining [B] ([2]; time 424 sec, [B]0 = 250, replicates 1-3): 238.745 and 234.154 and 235.799 | second-order ([2]; time 424 sec, replicates 1-3): 0.0006105 and 0.0004664 and 0.0006829 | remaining [B] ([2]; time 454 sec, [B]0 = 250, replicates 1-3): 238.204 and 233.641 and 235.374 | second-order ([2]; time 454 sec, replicates 1-3): 0.0006308 and 0.0004908 and 0.0007078 | remaining [B] ([2]; time 485 sec, [B]0 = 250, replicates 1-3): 237.419 and 232.929 and 234.552 | second-order ([2]; time 485 sec, replicates 1-3): 0.0006705 and 0.0005265 and 0.0007427 | remaining [B] ([2]; time 515 sec, [B]0 = 250, replicates 1-3): 236.662 and 232.416 and 234.155 | second-order ([2]; time 515 sec, replicates 1-3): 0.0006899 and 0.0005614 and 0.0007681 | remaining [B] ([2]; time 545 sec, [B]0 = 250, replicates 1-3): 236.148 and 231.703 and 233.702 | second-order ([2]; time 545 sec, replicates 1-3): 0.0007121 and 0.0005853 and 0.0008038
